# Assay results from patent US6060608A, “Analogs of CC-1065 and the duocarmycins” (The Scripps Research Institute, priority 1999, dated 2000).
# Key:
# [1] = test system: w794 DNA, 5'-AATTA high affinity site; test: Relative rate of DNA alkylation at the w794 5'-AATTA high affinity site; format: biochemical, SV40; conditions: 25° C.
# Description: Rate of DNA Alkylation. The relative rates of DNA alkylation for the natural enantiommers of CCBI-TMI (35) and CCBI-indole2 (37) versus those of the corresponding CBI and MCBI agents were measured at the single high affinity site in w794, 5'-AATTA. The relative rates earlier studies of DNA alkylation for MCBI-TMI, CBI-TMI, and duocarmycin SA were determined to be quite similar at 4° C., 1.8:1.0:0.9, respectively. […] In prior studies, we have highlighted similar observations with agents that span a much larger range of relative reactivities.
# The DNA alkylation selectivity and efficiency of the natural enantiomers of 304-307 were compared with that of 1 in w794 DNA. […] These trends in the overall efficiency of DNA alkylation parallel the relative trends in cytotoxic potency.
# (§1) DNA Alkylation Relative Rate of (+)-CCBI-TMI (35), (+)-CBI-TMI, and (+)-MCBI-TMI. Following the procedure detailed above, Eppendorf tubes containing 5' end-labeled w794 DNA (9 μL) in TE buffer (pH 7.5) were treated with (+)-CCBI-TMI (35), (+)-CBI-TMI, or (+)-MCBI-TMI (1 μL, 10^-6 M in DMSO). The solutions were mixed and incubated at 25° C. for 2, 4, 6, 9, 12, 15, and 24 h, respectively. Subsequent isolation of the alkylated DNA by EtOH precipitation, resuspension in TE buffer (10 μL, pH 7.5), thermolysis (30 min, 100° C.), PAGE, and autoradiography were conducted as detailed above. Relative rates for alkylation at the w794 high-affinity 5'-AATTA site were derived from the slopes of the plots of percent integrated optical density (IOD) of the high-affinity alkylation cleavage bands versus time.
# as §1, with “(+)-CCBI-indole2 (37), (+)-CBI-indole2,” for “(+)-CCBI-TMI (35), (+)-CBI-TMI,”, “(+)-MCBI-indole2.” for “(+)-MCBI-TMI.”, “(+)-CCBI-indole2 (37), (+)-CBI-indole2, and (+)-MCBI-indole2” for “(+)-CCBI-TMI (35), (+)-CBI-TMI, or (+)-MCBI-TMI”
# w794 duplex DNA = test: DNA alkylation selectivity and efficiency within w794 DNA, thermally-induced strand cleavage and PAGE; format: biochemical, SV40; conditions: for DNA alkylation less efficient than 1 or 305: natural enantiomers, 25° C., 24 h
# Excerpt: DNA Alkylation Selectivity and Efficiency. The DNA alkylation properties of the agents were examined within w794 duplex DNA, a 144 base-pair segment of duplex DNA for which comparative results are available for related agents. The alkylation site identification and the assessment of the relative selectivity among the available sites were obtained by thermally-induced strand cleavage of the singly 5' end-labeled duplex DNA after exposure to the agents. Following treatment of the end-labeled duplex DNA with a range of agent concentrations, the unbound agent was removed by EtOH precipitation of the DNA. Redissolution of the DNA in aqueous buffer, thermolysis (100° C., 30 min) to induce strand cleavage at the sites of DNA alkylation, denaturing high resolution polyacrylamide gel electrophoresis (PAGE) adjacent to Sanger dideoxynucleotide sequencing standards, and autoradiography led to identification of the DNA cleavage and alkylation sites. The DNA alkylation reaction selectivities observed under the incubation conditions for the agents detailed herein have proven identical to the alkylation selectivities observed with shorter or extended reaction periods or when the reactions were conducted at different temperatures (37 or 4° C., 0.5-7 d). As discussed below, the rates and efficiencies but not final relative efficiencies of DNA alkylation were altered by changing the reaction temperatures.
# DNA Alkylation Properties. […] The DNA alkylation reaction was examined within w794 DNA for which comparative results are available for past agents. The alkylation site identification was obtained by thermal strand cleavage of the singly 5' end-labeled duplex DNA after exposure to the agents. Following treatment of the labeled DNA with a range of agent concentrations, the unbound agent was removed by EtOH precipitation of the DNA. Redissolution of the DNA in aqueous buffer, thermolysis at 100° C. (30 min) to induce depurination and strand cleavage at the adenine N3 or guanine N3 minor groove alkylation sites, denaturing high resolution PAGE adjacent to Sanger sequencing standards and autoradiography provided the DNA cleavage and alkylation sites.
# DNA Alkylation Studies: selectivity and Efficiency. General procedures, the preparation of singly ^32 P 5' end-labeled double stranded DNA, the agent binding studies, gel electrophoresis, and autoradiography were conducted according to standard procedures. Eppendorf tubes containing the 5' end-labeled DNA (9 μL) in TE buffer (10 mM Tris, 1 mM EDTA, pH 7.5) were treated with the agent in DMSO (1 μL at the specified concentration). The solution was mixed by vortexing and brief centrifugation and subsequently incubated at 4 or 25° C. for 24 h (natural enantiomers) and 25 or 37° C. (unnatural enantiomers) for 72 h. The covalently modified DNA was separated from unbound agent by EtOH precipitation and resuspended in TE buffer (10 μL). The solution of DNA in an Eppendorf tube sealed with parafilm was warmed at 100° C. for 30 min to induce cleavage at the alkylation sites, allowed to cool to 25° C. and centrifuged. Formamide dye (0.03% xylene cyanol FF, 0.03% bromophenol blue, 8.7% Na2 EDTA 250 mM) was added (5 μL) to the supernatant. Prior to electrophoresis, the sample was denatured by warming at 100° C. for 5 min, placed in an icebath, and centrifuged, and the supernatant (3 μL) was loaded directly onto the gel. Sanger dideoxynucleotide sequencing reactions were run as standards adjacent to the reaction samples. Polyacrylamide gel electrophoresis (PAGE) was run on an 8% sequencing gel under denaturing conditions (8 M urea) in TBE buffer (100 mM Tris, 100 mM boric acid, 0.2 mM Na2 EDTA) followed by autoradiography.
# DNA Alkylation of w794 DNA. Eppendorf tubes containing the 5'-end labeled DNA (9 μL) in TE buffer (10 mM Tris, 1 mM EDTA, pH 7.2) were treated with the agent in DMSO (1 μL at the specified concentration). […]
# [2] = In vitro cytotoxic activity (cell line not given); format: cell-based; conditions: for less potent than ent-(-)-1: unnatural enantiomers
# [3] = Aqueous solvolysis reactivity followed by UV; format: physicochemical
# Description: The reactivity of 217-219 was assessed by following the solvolysis spectrophotometrically by UV at both pH 3 (50% CH3 OH-buffer, buffer=4:1:20 (v/v/v) 0.1 M citric acid, 0.2 M Na2 HPO4, H2 O) and pH 7 (1:1 H2 O--CH3 OH) measuring both the disappearance of the long-wavelength absorption band of the F2 CBI chromophore and the appearance of a short-wavelength absorption band attributable to the ring open products (FIG. 31).
# Aqueous Solvolysis Reactivity. pH 3: N-BOC-CCBI (25, 100 μg) was dissolved in CH3 OH (1.5 mL) and mixed with pH 3 aqueous buffer (1.5 mL). The buffer contained 4:1:20 (v:v:v) 0.1 M citric acid, 0.2 M Na2 HPO4 and H2 O, respectively. The solvolysis solution was sealed and kept at 25° C. protected from light. The UV spectrum was measured at regular intervals every 2 h during the first day, every 12 h for another week, and every 24 h for an additional week. The decrease in the long-wavelength absorption at 322 nm and the increase in the short-wavelength absorption at 268 nm were monitored, FIG. 1.
# pH 2: Samples of 25 (100 μg) and 26 (50 μg) were dissolved in CH3 OH (1.5 mL) and the solutions were mixed with aqueous buffer (pH 2.05, 1.5 mL). The buffer contained 4:1:20 (v:v:v) 1.0 M citric acid, 0.2 M Na2 HPO4, and H2 O, respectively. Immediately after mixing, the UV spectra of the solutions were measured against a reference solution containing CH3 OH (1.5 mL) and the aqueous buffer (1.5 mL) and these readings were used for the initial absorbance values. The solutions were stoppered, protected from the light, and allowed to stand at 25° C. UV spectra were recorded at regular intervals until constant values were obtained for the long and short wavelength absorbances. The solvolysis rate constants were determined from the slope of the lines obtained from linear least squares treatment of plots of ln[(Af -Ai)/(Af -A)] versus time using the short wavelength measurements for 25 and long wavelength measurements for 26).
# L1210 = test: In vitro cytotoxic activity, L1210; conditions: N-BOC derivatives
compound,measurement,setting,value
"COc1ccc2c(c1)C13CC1CN(C(=O)c1cc4cc(NC(=O)c5cc6ccccc6[nH]5)ccc4[nH]1)C3=CC2=O (single isomer, unassigned) [MCBI-indole2]","relative rate of DNA alkylation, indole2 series",[1],1.4 ×
"N#Cc1ccc2c(c1)C13CC1CN(C(=O)c1cc4cc(NC(=O)c5cc6ccccc6[nH]5)ccc4[nH]1)C3=CC2=O (single isomer, unassigned) [compound 37]",DNA alkylation more efficient than MCBI or CBI based agents,w794 duplex DNA,1.5-2 ×
same,DNA alkylation sequence selectivity,w794 duplex DNA,stronger preference for the fourth base to be A or T but that preference extended to include a fifth 5' A or T base
same,"relative rate of DNA alkylation, indole2 series",[1],2.5 ×
"COC(=O)c1cc2c([nH]1)C(=O)C=C1N(C(=O)c3cc4ccccc4[nH]3)CC3CC123 (single isomer, unassigned) [compound 304]",DNA alkylation less efficient than 1 or 305,w794 duplex DNA,20 ×
same,reduction in cytotoxic potency relative to duocarmycin SA,[2]; natural enantiomers,6.5 -fold
same,less potent than ent-(-)-1,[2],13-18 ×
"COC(=O)c1cc2c([nH]1)C(=O)C=C1N(C(=O)c3cc4ccc(OC)cc4[nH]3)CC3CC123 (single isomer, unassigned) [compound 306]",DNA alkylation less efficient than 1 or 305,w794 duplex DNA,5-10 ×
same,cytotoxic activity relative to duocarmycin SA or 304 (words),[2],intermediate activity
same,properties relative to duocarmycin SA or 304,[2],properties more analogous to 304
same,less potent than ent-(-)-1,[2],13-18 ×
"COC(=O)c1cc2c([nH]1)C(=O)C=C1N(C(=O)c3cc4cccc(OC)c4[nH]3)CC3CC123 (single isomer, unassigned) [compound 307]",DNA alkylation less efficient than 1 or 305,w794 duplex DNA,5-10 ×
same,cytotoxic activity relative to duocarmycin SA or 304 (words),[2],equipotent with (+)-304
same,properties relative to duocarmycin SA or 304,[2],properties more analogous to 304
same,less potent than ent-(-)-1,[2],13-18 ×
"COC(=O)c1cc2c([nH]1)C(=O)C=C1N(C(=O)c3cc4cc(OC)ccc4[nH]3)CC3CC123 (single isomer, unassigned) [ent-(-)-305]",cytotoxic activity relative to duocarmycin SA or 304 (words),[2],more closely approached the full activity of ent-(-)-1
"CC(C)(C)OC(=O)N1CC2CC23C1=CC(=O)c1ccccc13 (stereo not drawn) [N-BOC-CBI, reference compound]",concentration at which both enantiomers alkylate DNA,"w794 duplex DNA; FIG. 24, 37° C., 48 h",10^-2 M
same,solvolysis stability/reactivity,[3],stable
same,half-life,"[3]; 50% ch3oh-buffer, pH 3",133 h
same,solvolysis rate constant k,"[3]; pH 3, 50% CH3OH-buffer",1.45e-06 s⁻¹
same,relative cytotoxic potency of natural versus unnatural enantiomers,L1210,11 ×
COc1cc2cc(C(=O)N3CC4CC45C3=CC(=O)c3ccc(C#N)cc35)[nH]c2c(OC)c1OC (stereo not drawn) [compound 35],DNA alkylation more efficient than MCBI or CBI based agents,w794 duplex DNA,1.5-2 ×
same,DNA alkylation sequence selectivity,w794 duplex DNA,strong preference but not absolute requirement for the fourth 5' base to be A or T versus G or C
same,"relative rate of DNA alkylation, TMI series",[1]; 10^-6 M,2.5 ×
